From patent US20090270350A1, “Pyridinone Pyrazole Urea and Pyrimidinone Pyrazole Urea Derivatives” (PFIZER INC., priority 2006, published 2009)

Biological target: p38α (Homo sapiens, UniProt Q16539)
Experiment: p38α/MK2 cascade assay
Assay type: biochemical
Details: Table 2; same p38α/MK2 cascade assay; 40 minutes preincubation; read-out: p38a/MK2 Cascade 40 min Pre-Incuabtion (% Inhibition): IC50
Method in brief: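 In a cascade format, p38α was preincubated 40 min with inhibitor (1000–0.05 nM) before adding 1 nM nonactive MK2 (54-400), 5 μM MgATP and 0.5 μM FITC-Hsp27 peptide. Reaction ran 60 min in HEPES pH 7.5 with MgCl2, DTT, 2% DMSO, then EDTA-quenched. Peptide phosphorylation was measured by Caliper mobility shift to give IC50.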

Sequence of p38α (Q16539 whole entry): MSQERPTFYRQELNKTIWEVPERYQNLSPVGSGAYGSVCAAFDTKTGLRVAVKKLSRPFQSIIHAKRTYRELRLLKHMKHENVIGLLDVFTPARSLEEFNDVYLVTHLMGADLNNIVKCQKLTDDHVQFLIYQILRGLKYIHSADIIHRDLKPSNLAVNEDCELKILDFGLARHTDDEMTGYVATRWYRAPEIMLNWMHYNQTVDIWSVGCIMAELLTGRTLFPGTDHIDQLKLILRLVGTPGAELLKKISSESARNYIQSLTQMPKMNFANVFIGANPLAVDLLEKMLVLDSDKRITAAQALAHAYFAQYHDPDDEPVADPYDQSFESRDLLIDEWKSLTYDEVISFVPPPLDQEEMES

SMILES	IC50
Cc1ccc(C(=O)NCCO)cc1-n1c(C)cc(OCc2ccccc2CNC(=O)Nc2cc(C(C)(C)C)nn2-c2cccc(OCCO)c2)c(Cl)c1=O [Example 210, 3-[4-{[2-({[({3-tert-butyl-1-[3-(2-hydroxyethoxy)phenyl]-1H-pyrazol-5-yl}amino)carbonyl]amino}methyl)-benzyl]oxy}-3-chloro-6-methyl-2-oxopyridin-1(2H)-yl]-N-(2-hydroxyethyl)-4-methylbenzamide]	2.9 nM
CNC(=O)c1ccc(C)c(-n2c(C)cc(OCc3ccccc3CNC(=O)Nc3cc(C(C)(C)C)nn3-c3cccc(OCCO)c3)c(Cl)c2=O)c1 [Example 211, 3-[4-{[2-({[({3-tert-butyl-1-[3-(2-hydroxyethoxy)phenyl]-1H-pyrazol-5-yl}amino)carbonyl]amino}methyl)benzyl]oxy}-3-chloro-6-methyl-2-oxopyridin-1(2H)-yl]-N,4-dimethylbenzamide]	2.6 nM
Cc1ccc(C(=O)NCC(O)CO)cc1-n1c(C)cc(OCc2ccccc2CNC(=O)Nc2cc(C(C)(C)C)nn2-c2cccc(OCCO)c2)c(Cl)c1=O (stereo not drawn) [Example 212, 3-[4-{[2-({[({3-tert-butyl-1-[3-(2-hydroxyethoxy)phenyl]-1H-pyrazol-5-yl}amino)carbonyl]amino}methyl)benzyl]oxy}-3-chloro-6-methyl-2-oxopyridin-1(2H)-yl]-N-(2,3-dihydroxypropyl)-4-methylbenzamide]	1.8 nM
COC(=O)c1ccc(C)c(-n2c(C)cc(OCc3ccccc3CNC(=O)Nc3cc(C(C)(C)C)nn3-c3ccc(O)cc3)c(Cl)c2=O)c1 [Example 213, methyl 3-{4-[(2-{[({[3-tert-butyl-1-(4-hydroxyphenyl)-1H-pyrazol-5-yl]amino}carbonyl)amino]methyl}benzyl)oxy]-3-chloro-6-methyl-2-oxopyridin-1(2H)-yl}-4-methylbenzoate]	4 nM
CNC(=O)c1ccc(C)c(-n2c(C)cc(OCc3ccccc3CNC(=O)Nc3cc(C(C)(C)C)nn3-c3ccc(O)cc3)c(Cl)c2=O)c1 [Example 214, 3-{4-[(2-{[({[3-tert-butyl-1-(4-hydroxyphenyl)-1H-pyrazol-5-yl]amino}carbonyl)amino]methyl}benzyl)oxy]-3-chloro-6-methyl-2-oxopyridin-1(2H)-yl}-N,4-dimethylbenzamide]	2.1 nM
COc1cccc(Cn2c(C)cc(OCc3ccccc3CNC(=O)Nc3cc(C(C)(C)C)nn3-c3ccc(O)c(Cl)c3)c(Cl)c2=O)c1 [Example 215, 1-[3-tert-butyl-1-(3-chloro-4-hydroxyphenyl)-1H-pyrazol-5-yl]-3-[2-({[3-chloro-1-(3-methoxy-benzyl)-6-methyl-2-oxo-1,2-dihydropyridin-4-yl]oxy}methyl)-benzyl]urea]	8 nM
Cc1ccc(C(=O)NCCO)cc1-n1c(C)cc(OCc2ccccc2CNC(=O)Nc2cc(C(C)(C)C)nn2-c2ccc(O)cc2)c(Cl)c1=O [Example 216, 3-{4-[(2-{[({[3-tert-butyl-1-(4-hydroxyphenyl)-1H-pyrazol-5-yl]amino}carbonyl)amino]methyl}benzyl)oxy]-3-chloro-6-methyl-2-oxopyridin-1(2H)-yl}-N-(2-hydroxyethyl)-4-methyl-benzamide]	1.8 nM
Cc1ccc(C(=O)NCC(O)CO)cc1-n1c(C)cc(OCc2ccccc2CNC(=O)Nc2cc(C(C)(C)C)nn2-c2ccc(O)cc2)c(Cl)c1=O (stereo not drawn) [Example 217, 3-{4-[(2-{[({[3-tert-butyl-1-(4-hydroxyphenyl)-1H-pyrazol-5-yl]amino}carbonyl)amino]methyl}benzyl)oxy]-3-chloro-6-methyl-2-oxopyridin-1(2H)-yl}-N-(2,3-dihydroxypropyl)-4-methylbenzamide]	1.5 nM
COCCNC(=O)c1ccc(C)c(-n2c(C)cc(OCc3ccccc3CNC(=O)Nc3cc(C(C)(C)C)nn3-c3ccc(O)cc3)c(Cl)c2=O)c1 [Example 218, 3-{4-[(2-{[({[3-tert-butyl-1-(4-hydroxyphenyl)-1H-pyrazol-5-yl]amino}carbonyl)amino]methyl}benzyl)oxy]-3-chloro-6-methyl-2-oxopyridin-1(2H)-yl}-N-(2-methoxyethyl)-4-methyl-benzamide]	1.81 nM
Cc1ccc(C(=O)NCC(N)=O)cc1-n1c(C)cc(OCc2ccccc2CNC(=O)Nc2cc(C(C)(C)C)nn2-c2ccc(O)cc2)c(Cl)c1=O [Example 219, N-(2-amino-2-oxoethyl)-3-{4-[(2-{[({[3-tert-butyl-1-(4-hydroxyphenyl)-1H-pyrazol-5-yl]amino}carbonyl)amino]-methyl}benzyl)oxy]-3-chloro-6-methyl-2-oxopyridin-1(2H)-yl}-4-methylbenzamide]	0.9 nM
Cc1ccc(C(=O)N[C@@H](C)C(N)=O)cc1-n1c(C)cc(OCc2ccccc2CNC(=O)Nc2cc(C(C)(C)C)nn2-c2ccc(O)cc2)c(Cl)c1=O [Example 220, N-[(1S)-2-amino-1-methyl-2-oxoethyl]-3-{4-[(2-{[({[3-tert-butyl-1-(4-hydroxyphenyl)-1H-pyrazol-5-yl]amino}carbonyl)-amino]methyl}benzyl)oxy]-3-chloro-6-methyl-2-oxopyridin-1(2H)-yl}-4-methylbenzamide]	1.4 nM
Cc1ccc(C(=O)NCC(O)CO)cc1-n1c(C)cc(OCc2ccccc2CNC(=O)Nc2cc(C(C)(C)C)nn2-c2ccc(O)c(Cl)c2)c(Cl)c1=O (stereo not drawn) [Example 227, 3-{4-[(2-{[({[3-tert-butyl-1-(3-chloro-4-hydroxyphenyl)-1H-pyrazol-5-yl]amino}carbonyl)amino]methyl}benzyl)oxy]-3-chloro-6-methyl-2-oxopyridin-1(2H)-yl}-N-(2,3-dihydroxy-propyl)-4-methylbenzamide]	2 nM
Cc1ccc(C(=O)NCCO)cc1-n1c(C)cc(OCc2ccccc2CNC(=O)Nc2cc(C(C)(C)C)nn2-c2ccc(Cl)c(O)c2)c(Cl)c1=O [Example 228, 3-{4-[(2-{[({[3-tert-butyl-1-(4-chloro-3-hydroxyphenyl)-1H-pyrazol-5-yl]amino}carbonyl)amino]methyl}benzyl)oxy]-3-chloro-6-methyl-2-oxopyridin-1(2H)-yl}-N-(2-hydroxyethyl)-4-methylbenzamide]	2.1 nM
Cc1ccc(C(=O)NCCN(C)C)cc1-n1c(C)cc(OCc2ccccc2CNC(=O)Nc2cc(C(C)(C)C)nn2-c2ccc(O)c(Cl)c2)c(Cl)c1=O [Example 229, 3-{4-[(2-{[({[3-tert-butyl-1-(3-chloro-4-hydroxyphenyl)-1H-pyrazol-5-yl]amino}carbonyl)amino]methyl}benzyl)oxy]-3-chloro-6-methyl-2-oxopyridin-1(2H)-yl}-N-[2-(dimethylamino)-ethyl]-4-methylbenzamide]	2.3 nM
COCCNC(=O)c1ccc(C)c(-n2c(C)cc(OCc3ccccc3CNC(=O)Nc3cc(C(C)(C)C)nn3-c3ccc(Cl)c(O)c3)c(Cl)c2=O)c1 [Example 230, 3-{4-[(2-{[({[3-tert-butyl-1-(4-chloro-3-hydroxyphenyl)-1H-pyrazol-5-yl]amino}carbonyl)amino]methyl}benzyl)oxy]-3-chloro-6-methyl-2-oxopyridin-1(2H)-yl}-N-(2-methoxyethyl)-4-methylbenzamide]	1.92 nM

Other lines, results leading:

IC50	SMILES
10.5 nM	COC(=O)c1ccc(C)c(-n2c(C)cc(OCc3ccccc3CNC(=O)Nc3cc(C(C)(C)C)nn3-c3ccc(Cl)c(O)c3)c(Cl)c2=O)c1 [Example 221, methyl 3-{4-[(2-{[({[3-tert-butyl-1-(4-chloro-3-hydroxy-phenyl)-1H-pyrazol-5-yl]amino}carbonyl)amino]-methyl}-benzyl)oxy]-3-chloro-6-methyl-2-oxopyridin-1(2H)-yl}-4-methylbenzoate]
9.6 nM	COC(=O)c1ccc(C)c(-n2c(C)cc(OCc3ccccc3CNC(=O)Nc3cc(C(C)(C)C)nn3-c3ccc(O)c(Cl)c3)c(Cl)c2=O)c1 [Example 222, methyl 3-{4-[(2-{[({[3-tert-butyl-1-(3-chloro-4-hydroxy-phenyl)-1H-pyrazol-5-yl]amino}carbonyl)amino]-methyl}-benzyl)oxy]-3-chloro-6-methyl-2-oxopyridin-1(2H)-yl}-4-methylbenzoate]
4.6 nM	CNC(=O)c1ccc(C)c(-n2c(C)cc(OCc3ccccc3CNC(=O)Nc3cc(C(C)(C)C)nn3-c3ccc(O)c(Cl)c3)c(Cl)c2=O)c1 [Example 223, 3-{4-[(2-{[({[3-tert-butyl-1-(3-chloro-4-hydroxyphenyl)-1H-pyrazol-5-yl]amino}carbonyl)amino]methyl}benzyl)oxy]-3-chloro-6-methyl-2-oxopyridin-1(2H)-yl}-N,4-dimethylbenzamide]
3.2 nM	Cc1ccc(C(=O)NCCO)cc1-n1c(C)cc(OCc2ccccc2CNC(=O)Nc2cc(C(C)(C)C)nn2-c2ccc(O)c(Cl)c2)c(Cl)c1=O [Example 224, 3-{4-[(2-{[({[3-tert-butyl-1-(3-chloro-4-hydroxyphenyl)-1H-pyrazol-5-yl]amino}carbonyl)amino]methyl}benzyl)oxy]-3-chloro-6-methyl-2-oxopyridin-1(2H)-yl}-N-(2-hydroxyethyl)-4-methylbenzamide]
3.03 nM	COCCNC(=O)c1ccc(C)c(-n2c(C)cc(OCc3ccccc3CNC(=O)Nc3cc(C(C)(C)C)nn3-c3ccc(O)c(Cl)c3)c(Cl)c2=O)c1 [Example 225, 3-{4-[(2-{[({[3-tert-butyl-1-(3-chloro-4-hydroxyphenyl)-1H-pyrazol-5-yl]amino}carbonyl)amino]methyl}benzyl)oxy]-3-chloro-6-methyl-2-oxopyridin-1(2H)-yl}-N-(2-methoxyethyl)-4-methylbenzamide]
3.6 nM	CNC(=O)c1ccc(C)c(-n2c(C)cc(OCc3ccccc3CNC(=O)Nc3cc(C(C)(C)C)nn3-c3ccc(Cl)c(O)c3)c(Cl)c2=O)c1 [Example 226, 3-{4-[(2-{[({[3-tert-butyl-1-(4-chloro-3-hydroxyphenyl)-1H-pyrazol-5-yl]amino}carbonyl)amino]methyl}benzyl)oxy]-3-chloro-6-methyl-2-oxopyridin-1(2H)-yl}-N,4-dimethylbenzamide]
